Assay results from patent US20260183274A1, “PDK1 REGULATORY COMPOUND AND COMPOSITION CONTAINING THE SAME” (PROVIBIO CO., LTD., priority 2024, published 2026).

Legend:
Format in all cases: cell-based
[1] = test system: T cells isolated from mouse spleens; assay: T cell proliferation inhibition (CFSE flow cytometry, anti-CD3/anti-CD28 stimulation); details: mouse spleen T cells, 3 days; for inhibition at 0.01 µM / inhibition at 0.1 µM / inhibition at 1 µM / inhibition at 10 µM / inhibition at 30 µM / inhibition at 50 µM: Mus musculus, T-cell, 72 h, read-out: Proliferation inhibition rate (%)
Summary of the method: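 Splenic T cells from 7-week-old C57BL/6 mice were MACS-isolated, CFSE-labelled, seeded at 2×10^5 cells/well and activated with anti-CD3/anti-CD28 (0.5 μg/mL each). Compound at 10 nM–50 μM (six levels, triplicate) was present for 3 days at 37 °C before flow cytometric readout of proliferation inhibition rate.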

[2] = test system: Human B Lymphocyte cell line, SU-DHL-8; assay: Relative cell viability CCK-8, SU-DHL-8; details: for viability at 1 µM / viability at 10 µM / viability at 30 µM / viability at 50 µM: Homo sapiens, SU-DHL-8, 48 h; for viability at 1 µM: read-out: Relative cell viability (%), SU-DHL-8, 1 μM; for viability at 10 µM: read-out: Relative cell viability (%), SU-DHL-8, 10 μM; for viability at 30 µM: read-out: Relative cell viability (%), SU-DHL-8, 30 μM; for viability at 50 µM: read-out: Relative cell viability (%), SU-DHL-8, 50 μM
Summary of the method: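 Cells grown in RPMI-1640 with 10% FBS, treated with compound at several concentrations, then given CCK-8 for 4 h at 37° C. Viability expressed as percent of DMSO-treated cells.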

[3] = test system: Human Colorectal Carcinoma cell line, HCT-116; assay: Relative cell viability CCK-8, HCT-116; details: Homo sapiens, HCT-116, 48 hours
Protocol: (§1) Human-derived breast cancer cell line MCF-7, human-derived lung cancer cell line A549, human-derived colorectal cancer cell line HCT-116, human pancreatic cancer cell line AsPC-1, glioblastoma cell line A172, and melanoma cell line Malme-3M were obtained from the Korean Cell Bank. gastric cancer cell line SNU-719, and bladder cancer cell line T24 were cultured in RPMI-1640 medium containing 10% FBS.
(§2) Following stabilization, the cells were harvested using Trypsin-EDTA treatment, centrifuged at 1,200 rpm for 3 minutes, the supernatant was removed, and the cells were resuspended in the same medium. They were then seeded into a 96-well plate (Costar 96-well cell culture plate, Corning) at 100 μL per well, and the conditions were adjusted as indicated in Table 5.
(§3) The cells were cultured in a 5% CO2 incubator at 37° C. for 24 hours, and after stabilization of the cells, each plate was washed with 200 μL of PBS per well and treated with 50 μL of culture medium per well.
(§4) After that, 10 μL of CCK-8 was added to each well, and the plate was incubated again at 37° C. in a 5% CO2 incubator for 2 hours.
(§5) In other words, when the survival rate of untreated cells (DMSO) is set at 100%, the relative cell survival rate in each group treated with the drug at different concentrations is indicated.

[4] = test system: Human Pancreas Adenocarcinoma cell line, AsPC-1; assay: Relative cell viability CCK-8, AsPC-1; details: 48 hours; for viability at 1 µM: ASPC1, 1 μM; for viability at 10 µM: ASPC1, 10 μM; for viability at 30 µM: ASPC1, 30 μM; for viability at 50 µM: ASPC1, 50 μM
Protocol: as §1, §2, §3, §4, §5

[5] = test system: Human Bladder cancer cell, T24; assay: Relative cell viability CCK-8, T24; details: Homo sapiens, 48 h
Protocol: as §1, §2, §3, §4, §5

[6] = test system: Human Head and Neck cancer, Fadu; assay: Relative cell viability CCK-8, Fadu; details: Fadu cells, relative to untreated cells; for viability at 1 µM / viability at 10 µM / viability at 30 µM / viability at 50 µM: Homo sapiens, FaDu
Protocol: Human-derived head and neck cancer cell line Fadu and osteosarcoma cell line Saos-2 were cultured in MEM medium containing 10% FBS, 100 U/mL penicillin, and 100 μg/mL streptomycin.
as §2, §3, §4, §5

[7] = 48 hours, untreated (DMSO) = 100%
[8] = 1 μM, 48 hours, untreated (DMSO) = 100%
[9] = 10 μM, 48 hours, untreated (DMSO) = 100%
[10] = 30 μM, 48 hours, untreated (DMSO) = 100%
[11] = 50 μM, 48 hours, untreated (DMSO) = 100%

Compound | inhibition at 0.01 µM ([1]; compound 10 nM) [%] | inhibition at 0.1 µM ([1]; compound 100 nM) [%] | inhibition at 1 µM ([1]; compound 1 μM) [%] | inhibition at 10 µM ([1]; compound 10 μM) [%] | inhibition at 30 µM ([1]; compound 30 μM) [%] | inhibition at 50 µM ([1]; compound 50 μM) [%] | viability at 1 µM [2, 7] [%] | viability at 10 µM [2, 7] [%] | viability at 30 µM [2, 7] [%] | viability at 50 µM [2, 7] [%] | viability at 1 µM ([6]; 1 μM) [%] | viability at 10 µM ([6]; 10 μM) [%] | viability at 30 µM ([6]; 30 μM) [%] | Proliferation inhibition rate (%) ([1]; compound 10 nM) | Proliferation inhibition rate (%) ([1]; compound 100 nM) | Proliferation inhibition rate (%) ([1]; compound 1 μM) | Proliferation inhibition rate (%) ([1]; compound 10 μM) | Proliferation inhibition rate (%) ([1]; compound 30 μM) | Proliferation inhibition rate (%) ([1]; compound 50 μM) | Relative cell viability (%) ([6]; 1 μM) | also measured
Nc1ncccc1C(=O)NCCCCCCCCCCCCN1CCSC1 [Compound 31, 2-Amino-N-(12-(thiazolidin-3-yl)dodecyl)nicotinamide] | 8.01 | 77.2 | 100 | 100 | 100 | 100 | 5.57 | 4.36 | 1 | 0.23 | – | – | – | – | – | – | – | – | – | – | viability at 1 µM ([3]; 1 μM): 11.6%; viability at 10 µM ([3]; 10 μM): 13.2%; viability at 30 µM ([3]; 30 μM): 12.3%; viability at 50 µM ([3]; 50 μM): 12%; viability at 1 µM [4]: 40.8%; viability at 10 µM [4]: 41%; viability at 30 µM [4]: 39.4%; viability at 50 µM [4]: 36.6%; viability at 1 µM [5]: 7.59%; viability at 10 µM [5]: 7.06%; viability at 30 µM [5]: 7.58%; viability at 50 µM [5]: 6.92%
Nc1ncccc1C(=O)NCCCCCCCCCCCCN1CCC(c2ccc([N+](=O)[O-])cc2)CC1 [Compound 44, 2-Amino-N-(12-(4-(4-nitrophenyl)piperidin-1-yl)dodecyl)nicotinamide] | -6.21 | 100 | 100 | 100 | 100 | 100 | 6.14 | 4.91 | 2.54 | 1.41 | 1.22 | 5.89 | 2.94 | – | – | – | – | – | – | – | –
CN(C)C1CCCCN(CCCCCCCCCCCCNC(=O)c2cccnc2N)C1 (centres unmarked) [Compound 45, 2-Amino-N-(12-(3-(dimethylamino)azepan-1-yl)dodecyl)nicotinamide] | 0.16 | 100 | 100 | 100 | 100 | 100 | 1.91 | 1.27 | 0.53 | – | 29.8 | 74.1 | 60 | – | – | – | – | – | – | – | Relative cell viability (%), SU-DHL-8 ([2]; human, 48 h, 50 µM): −1.31%; viability at 1 µM [5]: 9.91%; viability at 10 µM [5]: 11%; viability at 30 µM [5]: 9.95%; viability at 50 µM [5]: 9.04%; viability at 50 µM ([6]; 50 μM): 18.2%
Nc1ncccc1C(=O)NCCCCCCCCCCCCN1CCC(O)CC1 [Compound 47, 2-Amino-N-(12-(4-hydroxypiperidin-1-yl)dodecyl)nicotinamide] | -28.8 | 100 | 100 | 100 | 100 | 100 | 11.7 | 10 | 9.4 | 8.33 | 10 | 19.9 | 7.34 | – | – | – | – | – | – | – | viability at 50 µM ([6]; 50 μM): 5.02%
Cl.Nc1ncccc1C(=O)NCCCCCCCCCCCCN1CC[C@H](N)C1 [Compound 50, (S)-2-Amino-N-(12-(3-aminopyrrolidin-1-yl)dodecyl) nicotinamide hydrochloride] | – | – | – | – | – | – | – | – | – | – | – | – | – | −7.48 | 100.00 | 100.00 | 100.00 | 100.00 | 100.00 | 20.78 | Relative cell viability (%), SU-DHL-8 [2, 8]: 9.20%; Relative cell viability (%), SU-DHL-8 [2, 9]: 8.18%; Relative cell viability (%), SU-DHL-8 [2, 10]: 6.18%; Relative cell viability (%), SU-DHL-8 [2, 11]: 4.31%; Relative cell viability (%) ([6]; 10 μM): 26.55%; Relative cell viability (%) ([6]; 30 μM): 23.42%; Relative cell viability (%) ([6]; 50 μM): 7.05%
Cc1ccc(OC2CCN(CCCCCCCCCCCCNC(=O)c3cccnc3N)CC2)cc1 [Compound 51, 2-Amino-N-(12-(4-(p-tolyloxy)piperidin-1-yl)dodecyl) nicotinamide] | – | – | – | – | – | – | – | – | – | – | – | – | – | 0.77 | 16.10 | 100.00 | 100.00 | 100.00 | 100.00 | 24.93 | Relative cell viability (%) ([6]; 10 μM): 17.30%; Relative cell viability (%) ([6]; 50 μM): 7.69%
Nc1ncccc1C(=O)NCCCCCCCCCCCCN1CCN(CCO)CC1 [Compound 54, 2-Amino-N-(12-(4-(2-hydroxyethyl)piperazin-1-yl)dodecyl) nicotinamide] | – | – | – | – | – | – | – | – | – | – | – | – | – | −43.03 | 100.00 | 100.00 | 100.00 | 100.00 | 100.00 | 24.97 | Relative cell viability (%), SU-DHL-8 [2, 8]: 6.42%; Relative cell viability (%), SU-DHL-8 [2, 9]: 4.05%; Relative cell viability (%), SU-DHL-8 [2, 10]: 3.26%; Relative cell viability (%), SU-DHL-8 [2, 11]: 2.23%; Relative cell viability (%) ([6]; 10 μM): 33.03%; Relative cell viability (%) ([6]; 30 μM): 32.41%; Relative cell viability (%) ([6]; 50 μM): 18.65%
Nc1ncccc1C(=O)NCCCCCCCCCCCCN1CCc2ccccc21 [Compound 89, 2-Amino-N-(12-(indolin-1-yl)dodecyl)nicotinamide] | -3.34 | 100 | 100 | 100 | 100 | 100 | 1.33 | 0.82 | 0.48 | – | – | – | – | – | – | – | – | – | – | – | Relative cell viability (%), SU-DHL-8 ([2]; human, 48 h, 50 µM): −0.86%; viability at 1 µM [4]: 30.3%; viability at 10 µM [4]: 19.2%; viability at 30 µM [4]: 17.8%; viability at 50 µM [4]: 17.8%
Nc1ncccc1C(=O)CCCCCCCCCCCCCN1CC2CCC(C1)O2 [Compound 131, 1-(2-aminopyridin-3-yl)-14-(8-oxa-3-azabicyclo[3.2.1]octan-3-yl)tetradecan-1-one] | -6.12 | 100 | 100 | 100 | 100 | 100 | 44.8 | 42.1 | 42.7 | 42.5 | – | – | – | – | – | – | – | – | – | – | –
